The text below walks through data of ChEMBL document CHEMBL6182920, “The Discovery of C7-Substituted Norbornyl Bisamides as RXFP1 Small Molecule Agonists” (J Med Chem, 2025).

The target in data set [1] is T1, Relaxin receptor 1 (Mus musculus, UniProt Q6R6I7).
T1 sequence (Q6R6I7 whole entry): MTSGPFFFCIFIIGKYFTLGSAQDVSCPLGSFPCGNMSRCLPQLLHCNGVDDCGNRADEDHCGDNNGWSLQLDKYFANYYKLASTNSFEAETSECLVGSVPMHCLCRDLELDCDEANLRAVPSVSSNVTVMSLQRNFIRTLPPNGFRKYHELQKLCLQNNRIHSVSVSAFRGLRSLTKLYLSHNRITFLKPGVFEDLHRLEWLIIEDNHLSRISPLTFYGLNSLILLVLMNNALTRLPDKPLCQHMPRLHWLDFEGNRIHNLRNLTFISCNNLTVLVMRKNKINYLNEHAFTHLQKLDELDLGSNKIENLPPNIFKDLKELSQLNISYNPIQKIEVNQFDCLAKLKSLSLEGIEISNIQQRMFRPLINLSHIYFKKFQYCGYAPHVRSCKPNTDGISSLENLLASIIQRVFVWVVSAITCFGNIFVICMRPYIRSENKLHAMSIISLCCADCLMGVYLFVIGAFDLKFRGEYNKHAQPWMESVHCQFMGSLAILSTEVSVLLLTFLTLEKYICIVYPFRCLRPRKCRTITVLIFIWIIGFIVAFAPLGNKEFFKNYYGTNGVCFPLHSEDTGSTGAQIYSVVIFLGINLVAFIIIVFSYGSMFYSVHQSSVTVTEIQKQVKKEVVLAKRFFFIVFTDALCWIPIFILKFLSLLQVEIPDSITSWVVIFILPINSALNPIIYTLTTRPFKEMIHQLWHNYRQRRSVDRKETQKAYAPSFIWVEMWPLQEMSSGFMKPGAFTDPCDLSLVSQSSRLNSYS
Briefly: Agonist activity at mouse RXFP1 stably expressed in HEK293 cells assessed as intracellular cAMP accumulation incubated for 30 mins by HTRF assay. It counts as functional, cell-based. In general terms: Cyclic AMP is a second messenger, typically raised through Gs and lowered through Gi signalling.

The target in data set [2] is T2, Relaxin receptor 1 (Homo sapiens, UniProt Q9HBX9).
T2 sequence (Q9HBX9 whole entry): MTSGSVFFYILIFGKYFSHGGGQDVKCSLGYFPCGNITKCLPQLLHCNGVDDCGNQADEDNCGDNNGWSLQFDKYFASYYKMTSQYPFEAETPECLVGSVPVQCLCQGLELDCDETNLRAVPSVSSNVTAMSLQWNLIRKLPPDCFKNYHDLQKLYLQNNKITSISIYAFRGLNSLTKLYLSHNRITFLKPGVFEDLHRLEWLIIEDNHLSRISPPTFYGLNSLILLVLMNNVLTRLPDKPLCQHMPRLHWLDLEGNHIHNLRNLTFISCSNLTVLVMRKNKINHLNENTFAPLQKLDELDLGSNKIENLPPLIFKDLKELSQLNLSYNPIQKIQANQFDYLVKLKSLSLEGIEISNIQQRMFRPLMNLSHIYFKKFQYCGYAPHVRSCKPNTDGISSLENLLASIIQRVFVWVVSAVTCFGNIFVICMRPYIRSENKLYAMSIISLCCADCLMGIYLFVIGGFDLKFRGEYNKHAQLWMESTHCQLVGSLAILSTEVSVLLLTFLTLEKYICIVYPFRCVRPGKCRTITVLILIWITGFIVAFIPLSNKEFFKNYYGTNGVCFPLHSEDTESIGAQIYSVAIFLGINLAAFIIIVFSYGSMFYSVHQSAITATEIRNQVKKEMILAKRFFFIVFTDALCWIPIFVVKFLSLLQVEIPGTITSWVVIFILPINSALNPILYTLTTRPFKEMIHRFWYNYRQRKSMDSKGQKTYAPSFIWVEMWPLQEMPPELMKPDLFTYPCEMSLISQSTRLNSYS
In words: Agonist activity at human RXFP1 stably expressed in HEK293 cells assessed as intracellular cAMP accumulation incubated for 30 mins by HTRF assay.

Data set [3] addresses T3, Relaxin receptor 1 (Rattus norvegicus, UniProt Q6R6I6).
T3 sequence (Q6R6I6 whole entry): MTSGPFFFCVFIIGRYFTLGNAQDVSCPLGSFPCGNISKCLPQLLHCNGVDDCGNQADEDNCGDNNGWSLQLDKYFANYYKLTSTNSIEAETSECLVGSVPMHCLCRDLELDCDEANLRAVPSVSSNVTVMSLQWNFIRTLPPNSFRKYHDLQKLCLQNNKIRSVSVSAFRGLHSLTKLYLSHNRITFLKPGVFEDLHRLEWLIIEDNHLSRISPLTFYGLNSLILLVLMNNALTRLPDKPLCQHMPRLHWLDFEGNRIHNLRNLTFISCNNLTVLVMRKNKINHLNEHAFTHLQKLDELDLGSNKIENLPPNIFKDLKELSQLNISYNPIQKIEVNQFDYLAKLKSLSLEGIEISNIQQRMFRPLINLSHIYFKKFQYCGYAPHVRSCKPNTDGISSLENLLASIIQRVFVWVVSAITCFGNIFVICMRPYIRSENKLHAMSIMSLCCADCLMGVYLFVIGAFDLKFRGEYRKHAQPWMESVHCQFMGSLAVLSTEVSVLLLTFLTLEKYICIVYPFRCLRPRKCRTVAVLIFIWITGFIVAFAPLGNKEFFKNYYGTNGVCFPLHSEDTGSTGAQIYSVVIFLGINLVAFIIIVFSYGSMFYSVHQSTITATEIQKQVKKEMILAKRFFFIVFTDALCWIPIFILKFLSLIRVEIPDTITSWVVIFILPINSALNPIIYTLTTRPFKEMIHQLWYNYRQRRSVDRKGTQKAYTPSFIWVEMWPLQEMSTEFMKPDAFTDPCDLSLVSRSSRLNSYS
Briefly: Agonist activity at rat RXFP1 stably expressed in HEK293 cells assessed as intracellular cAMP accumulation incubated for 30 mins by HTRF assay. Format: cell-based.

Data set [4] is described as follows: Thermodynamic aqueous solubility of compound in phosphate buffer at pH 7.4 by reversed-phase ultrahigh pressure liquid chromatography. Format: physicochemical. The conditions noted are these: for solubility thermodynamic: phosphate buffer, read-out: Therm_solubility.
A short description of data set [5]: Microsomal stability in rat liver microsomes assessed as compound remaining measured after 30 mins. The conditions noted are these: read-out: Stability. It counts as ADME, Microsome.
Data set [6] can be described thus: Microsomal stability in human liver microsomes assessed as compound remaining measured after 30 mins. It counts as ADME, Microsome. The conditions noted are these: read-out: Stability.
The nature of data set [7]: Microsomal stability in mouse liver microsomes assessed as compound remaining measured after 30 mins. The conditions noted are these: read-out: Stability. Format: ADME, Microsome. A general note: Microsomes from liver hold many membrane-bound enzymes, among them those of drug oxidation.

In general, EC50 refers to the concentration giving half of the maximal effect.

In brackets after ≈: the same amount, converted by molar mass. Some results are limits rather than exact numbers.

For the molecule `CNC(=O)OC(C(=O)O)c1ccc(F)c(-c2ccc(OC)c(C(=O)N[C@H]3[C@@H](C(=O)Nc4ccc(F)c(C(F)(F)F)c4)[C@H]4CC[C@@H]3/C4=C\C3CC3)c2)c1` (stereo in doubt; 40), the EC50 in data set [1] is 0.39 µM; in data set [2] it was 0.006 µM; in data set [3] it was 0.59 µM. In data set [4] (buffer), this molecule had a Therm_solubility of 250 µg/mL. For the same molecule, the remaining at 0.5 h in data set [5], in data set [6] and in data set [7] was greater than 90% throughout.
Regarding `COc1cc(F)c(F)cc1C(=O)N[C@H]1[C@@H](C(=O)Nc2ccc(F)c(C(F)(F)F)c2)[C@H]2CC[C@@H]1/C2=C\c1c(Cl)cccc1Cl`, the EC50 in data set [2] is 3.7 µM.
For `COc1ccc(-c2cncnc2)cc1C(=O)N[C@H]1[C@@H](C(=O)Nc2ccc(F)c(C(F)(F)F)c2)[C@H]2CC[C@@H]1C2=C(C)C`, the half-maximal effective concentration (EC50) in data set [1] was greater than 10 µM.
The same measure, in the same setting: next, `COc1ccc(-c2cc(C(=O)O)ccc2F)cc1C(=O)N[C@H]1[C@@H](C(=O)Nc2ccc(F)c(C(F)(F)F)c2)[C@H]2CC[C@@H]1C2=C(C)C`: 0.94 µM.
Still for that read-out and setting: for `COc1ccc(-c2cc(C(=O)O)ccc2F)cc1C(=O)N[C@H]1[C@@H](C(=O)NCc2ccccc2C(F)(F)F)[C@H]2CC[C@@H]1/C2=C\C1CC1` the value was 2.2 µM.
With `COc1ccc(-c2cccnc2)cc1C(=O)N[C@H]1[C@@H](C(=O)Nc2ccc(F)c(C(F)(F)F)c2)[C@H]2CC[C@@H]1C2=C(C)C`, the EC50 in data set [1] was greater than 10 µM.
On to `COc1ccc(-c2ccccc2C(=O)O)cc1C(=O)N[C@H]1[C@@H](C(=O)Nc2ccc(F)c(C(F)(F)F)c2)[C@H]2CC[C@@H]1C2=C(C)C`, for which the EC50 in data set [1] is greater than 20 µM.
Take `COc1ccc(-c2cc(C(=O)O)ccc2F)cc1C(=O)N[C@H]1[C@@H](C(=O)Nc2ccc(F)c(C(F)(F)F)c2)[C@H]2CC[C@@H]1/C2=C\C1CC1`: in data set [1], the EC50 stood at 0.14 µM. In addition, the remaining at 0.5 h in data set [5], in data set [6] and in data set [7] was greater than 90% in each case.
`COc1ccc(-c2cc(CC(=O)O)ccc2F)cc1C(=O)N[C@H]1[C@@H](C(=O)Nc2ccc(F)c(C(F)(F)F)c2)[C@H]2CC[C@@H]1/C2=C\c1cnoc1`: the values for the EC50 in data set [1], in data set [2] and in data set [3] were 0.74 µM, 0.011 µM and 1.2 µM, respectively. Besides, the solubility thermodynamic in data set [4] was 130 µg/mL (≈ 191 µM). Moreover, the remaining at 0.5 h in data set [5], in data set [6] and in data set [7] was greater than 90% in each case.
On to `COc1ccc(-c2cc(C(N)=O)ccc2F)cc1C(=O)N[C@H]1[C@@H](C(=O)Nc2ccc(F)c(C(F)(F)F)c2)[C@H]2CC[C@@H]1/C2=C\c1cnoc1`, for which the EC50 in data set [1] worked out at 0.95 µM. Moreover, the remaining at 0.5 h in data set [5], in data set [6] and in data set [7] was greater than 90% throughout.
For the molecule `COc1ccc(-c2cc(C(=O)O)ccc2F)cc1C(=O)N[C@H]1[C@@H](C(=O)NC2CCCC2)[C@H]2CC[C@@H]1/C2=C\C1CC1`, in data set [1], the EC50 is 1.3 µM.
With `COc1ccc(-c2cc(C(=O)O)ccc2OC)cc1C(=O)N[C@H]1[C@@H](C(=O)Nc2ccc(F)c(C(F)(F)F)c2)[C@H]2CC[C@@H]1C2=C(C)C`, the EC50 in data set [1] stood at 4.6 µM.
Consider `COc1ccc(-c2cc(O)ccc2F)cc1C(=O)N[C@H]1[C@@H](C(=O)Nc2ccc(F)c(C(F)(F)F)c2)[C@H]2CC[C@@H]1/C2=C\c1cnoc1`, for which the EC50 in data set [1] was 3 µM. Besides, the remaining at 0.5 h in data set [5], in data set [6] and in data set [7] was greater than 90% each time.
For `CNC(=O)OC(C(=O)O)c1ccc(F)c(-c2ccc(OC)c(C(=O)N[C@H]3[C@@H](C(=O)Nc4ccc(F)c(C(F)(F)F)c4)[C@H]4CC[C@@H]3/C4=C\c3cnoc3)c2)c1` (some centres undefined), the EC50 in data set [1] was 0.11 µM; in data set [2], 0.008 µM; in data set [3] it was 0.14 µM. Also, the remaining at 0.5 h in data set [5], in data set [6] and in data set [7] was greater than 90% each time.
For the molecule `COc1ccc(-c2cccc(C(=O)O)c2)cc1C(=O)N[C@H]1[C@@H](C(=O)Nc2ccc(F)c(C(F)(F)F)c2)[C@H]2CC[C@@H]1C2=C(C)C`, the EC50 in data set [1] turned out to be 6.3 µM.
On to `COc1cc(F)c(F)cc1C(=O)N[C@H]1[C@@H](C(=O)Nc2ccc(F)c(C(F)(F)F)c2)[C@H]2CC[C@@H]1/C2=C1/C=Cc2ccccc21`, for which, in data set [2], the EC50 is 0.81 µM.
Take `COc1cc(F)c(F)cc1C(=O)N[C@H]1[C@@H](C(=O)Nc2ccc(F)c(C(F)(F)F)c2)[C@@H]2CC[C@@H]1C2C(C)C` (single isomer, unassigned; isomer 2): the EC50 in data set [2] was 14 µM.
`COc1ccc(-c2cc(C(=O)NS(C)(=O)=O)ccc2F)cc1C(=O)N[C@H]1[C@@H](C(=O)Nc2ccc(F)c(C(F)(F)F)c2)[C@H]2CC[C@@H]1/C2=C\c1cnoc1`: the EC50 in data set [1] was found to be 0.56 µM; in data set [2], 0.022 µM; in data set [3], 0.89 µM. For the same molecule, the solubility thermodynamic in data set [4] is less than 1 µg/mL. Further, the remaining at 0.5 h in data set [5], in data set [6] and in data set [7] was greater than 90% in each case.
In the case of `COc1ccc(-c2cc(C(=O)O)ccc2F)cc1C(=O)N[C@H]1[C@@H](C(=O)Nc2ccc(F)c(C(F)(F)F)c2)[C@H]2CC[C@@H]1/C2=C\c1ccccc1`, the EC50 in data set [1] amounted to 1.3 µM; in data set [2] it was 0.016 µM. Also, the remaining at 0.5 h in data set [5], in data set [6] and in data set [7] was greater than 90% each time.
Take `COC(=O)c1ccc(F)c(-c2ccc(OC)c(C(=O)N[C@H]3[C@@H](C(=O)Nc4ccc(F)c(C(F)(F)F)c4)[C@H]4CC[C@@H]3C4=C(C)C)c2)c1`: in data set [1], the EC50 is greater than 10 µM.
Turning to `COc1ccc(-c2cc(C(=O)O)ccc2C)cc1C(=O)N[C@H]1[C@@H](C(=O)Nc2ccc(F)c(C(F)(F)F)c2)[C@H]2CC[C@@H]1C2=C(C)C`, the EC50 in data set [1] is 1.7 µM.
Same read-out and setting: next, `COc1ccc(-c2ccncc2)cc1C(=O)N[C@H]1[C@@H](C(=O)Nc2ccc(F)c(C(F)(F)F)c2)[C@H]2CC[C@@H]1C2=C(C)C`: greater than 20 µM.
For `COc1cc(F)c(F)cc1C(=O)N[C@H]1[C@@H](C(=O)Nc2ccc(F)c(C(F)(F)F)c2)[C@@H]2CC[C@@H]1C2C(C)C` (stereo in doubt), the EC50 in data set [2] was 3.5 µM.
